Measurements: PMC11040665, “Aminothiazolone Inhibitors Disrupt the Protein–RNA Interaction of METTL16 and Modulate the m^6A RNA Modification” (JACS Au, 2024)
“Also recorded” adds a separate entry of the source.

Columns and labels:
[1] = biological target: T1, His-tagged METTL16 MTD (Homo sapiens, UniProt Q86W50); assay: switchSENSE biosensor assay; format: binding; conditions: potassium salt of compound 45 was used
T1 construct: His-tagged METTL16 (1–291) was purified using the same protocol, without protease cleavage; made in house; host or cells: E. coli Rosetta (DE3)
T1 sequence (Q86W50 1-291): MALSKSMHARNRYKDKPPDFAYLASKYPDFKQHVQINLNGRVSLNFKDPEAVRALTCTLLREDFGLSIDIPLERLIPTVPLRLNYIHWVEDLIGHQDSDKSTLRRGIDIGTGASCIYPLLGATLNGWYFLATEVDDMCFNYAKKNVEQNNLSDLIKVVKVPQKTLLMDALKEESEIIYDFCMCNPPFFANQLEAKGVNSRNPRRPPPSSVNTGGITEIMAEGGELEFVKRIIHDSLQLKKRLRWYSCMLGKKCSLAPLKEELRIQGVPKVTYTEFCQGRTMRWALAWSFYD
Procedure: The biosensor assay was performed using a heliX instrument (Dynamic Biosensors) with a heliX adapter chip. The His-capture kit (HK-NTA-1) was used to functionalize and regenerate the chip. 100 nM His-tagged METTL16 MTD was captured to the surface and regenerated with imidazole solution (250 mM in 10 mM Tris, pH 7.4, 140 mM NaCl, 0.05% Tween 20, 50 μM EDTA, 50 μM EGTA) each time after measurement. PE140 buffer was used as the running buffer (10 mM Na2HPO4/NaH2PO4, pH 7.4, 140 mM NaCl, 0.05% Tween 20, 50 μM EDTA) and 0.2% DMSO was used as concertation 0. The association and dissociation flow rates were 200 μL/min, with an association time of 90 s and a dissociation time of 120 s. Data were analyzed using heliOS using the ‘kinetics mono- & biphasic-free amplitudes fitting’ mode.

[2] = biological target: T2, methyltransferase activity of METTL16 MTD toward MAT2A-hp1 (Homo sapiens, UniProt Q86W50); assay: In vitro methylation assay (MTase Glo); format: biochemical; conditions: for inhibition of the methyltransferase activity of METTL16 MTD, in words: RNA substrate MAT2A-hp1
T2 construct: METTL16 MTD (1–291) was subcloned to pOPINB plasmid; His tag followed by HRV 3C cleavage site (N, cleaved yes); made in house; host or cells: E. coli Rosetta (DE3)
T2 sequence (Q86W50 1-291): T1 sequence (Q86W50 1-291)
Procedure: Next, we evaluated the inhibition of the METTL16 methylation using the MTase Glo assay kit (Promega) measuring the methyltransferase activity based on the formation of the methylation product S-adenosyl homocysteine, which was converted to ADP by the MTase-Glo reagent to trigger a subsequent luciferase reaction (Figure 5E).
The methyltransferase activity of METTL16 MTD was measured using an MTase Glo kit (Promega V7601) following the manufacturer’s instructions. The reaction was carried out in white 384-well plates (Corning #3824), with a total methyltransferase reaction volume of 8 μL, and the final concentrations of METTL16 MTD, MAT2A-hp1, and SAM were 1, 1, and 10 μM, respectively, and 1% of DMSO was used as a control. […] To use SAM at a different final concentration, the concentration of SAM was adjusted accordingly in a 2× substrate solution.

[3] = biological target: T3, METTL16 MTD–U6 snRNA Δ interaction (Homo sapiens, UniProt Q86W50); assay: FP assay with Cy5-labeled U6 snRNA Δ; format: binding
T3 construct: METTL16 MTD (1–291) was subcloned to pOPINB plasmid; His tag followed by HRV 3C cleavage site (N, cleaved yes); made in house; host or cells: E. coli Rosetta (DE3)
T3 sequence (Q86W50 1-291): T1 sequence (Q86W50 1-291)

[4] = biological target: T4, METTL16 (1-291)–FAM-MAT2A-hp1 RNA (Homo sapiens, UniProt Q86W50); assay: FP assay after incubating SAM with METTL16; format: binding; conditions: SAM incubated with METTL16 before the FP assay
T4 construct: METTL16 MTD (1–291) was subcloned to pOPINB plasmid; His tag followed by HRV 3C cleavage site (N, cleaved yes); made in house; host or cells: E. coli Rosetta (DE3)
T4 sequence (Q86W50 1-291): T1 sequence (Q86W50 1-291)

[5] = tested on: MDA-MB-231 cells; assay: Colony formation assay; format: cell-based, human; conditions: 7 days, three tested concentrations
Procedure: MDA-MB-231 cells were collected and seeded with the density of 1000 cells per well into 24-well plates; after being cultured overnight, the medium was exchanged and treated with indicated compounds or DMSO (0.5%) as the control. The medium change and treatment were performed every 3 days. After 7 days, the cell culture medium was discarded, and cells were washed with PBS and fixed with 4% paraformaldehyde solution at room temperature for 15 min; the paraformaldehyde solution was removed, and cells were washed with PBS again to remove the paraformaldehyde. Then cells were stained with 0.1% (w/v) crystal violet. After staining for 15 min, the cells were washed with H2O to remove the extra dye and then photographed.

[6] = biological target: T5, METTL16 MTD–GGACU-containing RNA interaction (Homo sapiens, UniProt Q86W50); assay: EMSA with GGACU-containing RNA; conditions: 5 nM RNA, 600 nM METTL16 MTD
T5 sequence (Q86W50 1-291): T1 sequence (Q86W50 1-291)
Procedure: METTL16 MTD protein (1–291) was incubated with the indicated compound or DMSO in a buffer containing 20 mM HEPES, pH 7.5, 50 mM NaCl, 0.05% v/v Tween 20, and 0.05 mg/mL BGG at room temperature for 30 min; subsequently, FAM-MAT2A-hp1 RNA probe was added and incubated at room temperature for 10 min, the final of protein and RNA are 50 and 5 nM respectively, and 1% DMSO was used as the control. […] The gel was detected and imaged by Chemi Doc MP (Bio-Rad). […] EMSA for testing compounds with GGAUC-motif containing RNA and METTL16 MTD interaction was performed using the method described above, expecting that the final of METTL16 MTD protein and FAM-labeled-GGACU RNA are 600 nM and 5 nM respectively. EMSA for RNA binding: indicated concentrations of fluorophore-labeled RNA were incubated with indicated concentrations of protein in EMSA buffer for 15 min at room temperature, then loaded to native PAGE gels and imaged with the method described above.

SMILES	KA, biosensor assay [1] [M^-1]	Kd [1] [nM]	inhibition of the methyltransferase activity of METTL16 MTD, in words [2]	inhibition at 50 µM ([2]; at 50 μM, 1 μM METTL16 MTD, 1 μM MAT2A-hp1, 10 μM SAM) [%]	IC50 [3] [nM]	IC50 under different SAM concentrations (FP assay), in words [4]	inhibition on colony formation, in words [5]	inhibition of METTL16–GGACU RNA binding in EMSA, in words [6]
O=C1N=C(NS(=O)(=O)c2ccc(C(=O)O)cc2)SC1=C1C(=O)Nc2ccc(Br)cc21 [Compound 47]	5.67 ± 0.48E+5	1760	dose-dependently inhibited; also recorded: potent inhibitory activity	> 50	6400	remained	mild inhibitory activity against colony formation	dose-dependently inhibited
CN1C(=O)C(=C2SC(NS(=O)(=O)c3ccc(C(=O)O)cc3)=NC2=O)c2cc(Br)ccc21 [Compound 45]	7.43 ± 0.84E+5	1350	dose-dependently inhibited	–	2500	remained	did not show obvious inhibition on colony formation	dose-dependently inhibited
